These results are taken from patent publication US6716978B2, “Therapeutically active compounds based on indazole bioisostere replacement of catechol in PDE4 inhibitors” (Pfizer Inc, priority 1997, dated 2004).

For the compound `CCc1nn(-c2ccc(F)cc2)c2cc(C3=CCC(C(=O)O)CC3)ccc12` (centres unmarked) [Example 24, 4-(3-ethyl-1-(4-fluorophenyl)-1H-indazol-6-yl)-cyclohex-3-ene-carboxylic acid], the melting point (in general, the temperature, or range, at which the solid turns liquid) lay in the range of 214 to 216 °C.
On to `CCc1nn(-c2ccc(F)cc2)c2cc(Br)ccc12` [Example 20, 6-Bromo-3-ethyl-1-(4-fluorophenyl)-1H-indazole], for which the melting point is 72 to 73 °C.
